Measurements reported in the NIST ThermoML archive (doi:10.1007/s10765-016-2061-1).
± gives the expanded uncertainty stated by the source.

Conditions: Liquid, Vibrating tube method

CCF [fluoroethane]
Conditions	mass density [kg/m3]
283.5 K, 49990 kPa	805.67 ± 0.76
283.5 K, 60000 kPa	816.48 ± 0.87
283.5 K, 69990 kPa	826.06 ± 0.87
283.5 K, 79970 kPa	834.87 ± 0.89
283.5 K, 90040 kPa	843.3 ± 0.9
283.51 K, 10000 kPa	747.35 ± 0.69
283.51 K, 15000 kPa	756.91 ± 0.69
283.51 K, 20000 kPa	765.51 ± 0.7
283.51 K, 25000 kPa	773.62 ± 0.7
283.51 K, 30000 kPa	780.86 ± 0.71
283.51 K, 40000 kPa	794.13 ± 0.74
283.51 K, 100000 kPa	851.08 ± 0.91
283.52 K, 1000 kPa	727.11 ± 0.69
283.52 K, 3000 kPa	731.96 ± 0.69
283.52 K, 4990 kPa	736.6 ± 0.68
293.2 K, 1010 kPa	706.97 ± 0.72
293.2 K, 3010 kPa	712.87 ± 0.72
293.21 K, 5010 kPa	718.27 ± 0.7
293.21 K, 10010 kPa	730.51 ± 0.7
293.21 K, 15010 kPa	741.15 ± 0.7
293.21 K, 20000 kPa	750.65 ± 0.71
293.21 K, 25010 kPa	759.29 ± 0.72
293.21 K, 30010 kPa	767.25 ± 0.73
293.21 K, 70000 kPa	815.59 ± 0.9
293.21 K, 80000 kPa	825 ± 0.91
293.22 K, 40010 kPa	781.39 ± 0.75
293.22 K, 50000 kPa	793.87 ± 0.78
293.22 K, 60000 kPa	805.15 ± 0.9
293.22 K, 90000 kPa	833.51 ± 0.92
293.22 K, 99990 kPa	841.66 ± 0.94
303.23 K, 3010 kPa	692.69 ± 0.78
303.23 K, 5010 kPa	699.12 ± 0.73
303.23 K, 10000 kPa	713.26 ± 0.72
303.23 K, 15000 kPa	725.31 ± 0.72
303.23 K, 20010 kPa	735.85 ± 0.72
303.23 K, 30000 kPa	753.95 ± 0.74
303.24 K, 25010 kPa	745.33 ± 0.73
303.24 K, 40010 kPa	769.21 ± 0.77
303.24 K, 50000 kPa	782.6 ± 0.8
303.24 K, 60000 kPa	794.39 ± 0.92
303.24 K, 70000 kPa	805.57 ± 0.93
303.24 K, 80000 kPa	815.36 ± 0.94
303.25 K, 90000 kPa	824.43 ± 0.95
303.25 K, 100000 kPa	832.9 ± 0.96
313.14 K, 3000 kPa	669.48 ± 0.82
313.14 K, 5000 kPa	677.22 ± 0.77
313.14 K, 10000 kPa	694 ± 0.75
313.14 K, 15000 kPa	707.5 ± 0.74
313.15 K, 20000 kPa	719.54 ± 0.74
313.15 K, 25000 kPa	729.96 ± 0.75
313.15 K, 30010 kPa	739.29 ± 0.75
313.15 K, 40000 kPa	755.43 ± 0.79
313.15 K, 50000 kPa	770.06 ± 0.81
313.15 K, 60000 kPa	782.28 ± 0.95
313.15 K, 70000 kPa	794.18 ± 0.96
313.15 K, 80000 kPa	804.63 ± 0.97
313.16 K, 90000 kPa	814.08 ± 0.98
313.16 K, 100000 kPa	822.46 ± 1
323 K, 3000 kPa	644.53 ± 0.92
323 K, 5000 kPa	654.18 ± 0.82
323 K, 10000 kPa	673.87 ± 0.79
323 K, 15000 kPa	689.57 ± 0.77
323 K, 20000 kPa	702.96 ± 0.76
323 K, 25000 kPa	714.54 ± 0.77
323 K, 90000 kPa	804.1 ± 1
323.01 K, 30000 kPa	724.71 ± 0.77
323.01 K, 40000 kPa	742.42 ± 0.8
323.01 K, 50000 kPa	757.67 ± 0.83
323.01 K, 60000 kPa	770.9 ± 0.98
323.01 K, 69990 kPa	783.33 ± 0.99
323.01 K, 80000 kPa	794.16 ± 1
323.01 K, 100000 kPa	813.21 ± 1
332.98 K, 3000 kPa	616.38 ± 1.1
332.98 K, 5000 kPa	628.96 ± 0.91
332.98 K, 10010 kPa	653.01 ± 0.85
332.98 K, 50000 kPa	745.52 ± 0.85
332.98 K, 60000 kPa	759.62 ± 1
332.99 K, 15000 kPa	671.15 ± 0.8
332.99 K, 20010 kPa	686.12 ± 0.78
332.99 K, 25000 kPa	698.88 ± 0.79
332.99 K, 29990 kPa	710.09 ± 0.79
332.99 K, 39990 kPa	729.27 ± 0.82
332.99 K, 69990 kPa	772.51 ± 1
332.99 K, 80010 kPa	783.85 ± 1
332.99 K, 90000 kPa	794.07 ± 1
332.99 K, 100000 kPa	803.45 ± 1.1
342.85 K, 3000 kPa	582.54 ± 1.3
342.85 K, 5000 kPa	600.31 ± 1.1
342.85 K, 10000 kPa	630.51 ± 0.93
342.85 K, 15000 kPa	651.87 ± 0.84
342.85 K, 20000 kPa	668.76 ± 0.81
342.85 K, 25000 kPa	682.96 ± 0.81
342.85 K, 30000 kPa	695.28 ± 0.81
342.85 K, 40000 kPa	716.03 ± 0.84
342.85 K, 60000 kPa	748.38 ± 1.1
342.86 K, 50010 kPa	733.53 ± 0.87
342.86 K, 70000 kPa	762.03 ± 1.1
342.86 K, 79990 kPa	773.74 ± 1.1
342.86 K, 90010 kPa	784.53 ± 1.1
342.87 K, 100000 kPa	794.42 ± 1.1
352.86 K, 5000 kPa	566.12 ± 1.3
352.86 K, 10000 kPa	606.19 ± 1.1
352.86 K, 15000 kPa	631.59 ± 0.89
352.86 K, 19990 kPa	650.88 ± 0.85
352.86 K, 25000 kPa	666.7 ± 0.83
352.86 K, 29990 kPa	680.18 ± 0.83
352.86 K, 39990 kPa	702.62 ± 0.86
352.86 K, 50000 kPa	721.07 ± 0.89
352.86 K, 59990 kPa	736.86 ± 0.93
352.86 K, 70000 kPa	751.19 ± 1.1
352.86 K, 79990 kPa	763.56 ± 1.1
352.86 K, 90000 kPa	774.75 ± 1.1
352.87 K, 99990 kPa	785.11 ± 1.1
362.79 K, 4990 kPa	521.7 ± 1.6
362.79 K, 10000 kPa	579.49 ± 1.3
362.8 K, 15000 kPa	610.29 ± 0.97
362.8 K, 19990 kPa	632.41 ± 0.89
362.8 K, 24990 kPa	650.04 ± 0.86
362.8 K, 30000 kPa	664.91 ± 0.85
362.8 K, 40000 kPa	689.17 ± 0.88
362.8 K, 49990 kPa	708.84 ± 0.92
362.81 K, 59990 kPa	725.55 ± 0.95
362.81 K, 70000 kPa	740.64 ± 1.1
362.81 K, 80000 kPa	753.56 ± 1.1
362.81 K, 90000 kPa	765.31 ± 1.1
362.81 K, 99990 kPa	775.91 ± 1.2
